Literature values as cited in patent US20240009323A1, “METHODS OF TREATING COLON CANCER USING NANOPARTICLE MTOR INHIBITOR COMBINATION THERAPY” (Abraxis BioScience, LLC, priority 2017, published 2024).

Columns and labels:
[1] = in vivo

COc1ccc(COc2cc3oc(=O)c4cc(C(C)O)ccc4c3cc2OC)cc1 (centres unmarked) [Palomid 529]
affinity for ABCB1/ABCG2 (ABCB1/ABCG2): lacks affinity | brain penetration [1]: good brain penetration
